Tested on: asymmetric di-methyl PABP1 in RKO cells
Assay: RKO methylation assay, In Cell Western (ICW) for asymmetric di-methyl PABP1
Assay type: cell-based
Conditions: Homo sapiens, RKO, Cellular potencies, ICW PABP1me2a
Procedure, shortened: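 RKO cells treated with compound for 48 h at 37 °C, then fixed, permeabilized and immunostained for asymmetric di-methyl PABP1, with DRAQ5 as DNA stain. Infrared 700/800 nm signal ratio normalized to DMSO and 20 μM reference-compound controls; IC50 from triplicate wells.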

| SMILES | IC50 [µM] |
| --- | --- |
| CNCC(O)COc1cccc(-c2nc(NC3C[C@H]4CC[C@@H](C3)N4C(=O)OC)c(C)c(-c3c(C)noc3C)n2)c1 (some centres unmarked) [Example 242-1a] | < 5 |
| CCO[C@H]1CCC[C@H]1Nc1nc(-c2cc(OC[C@H](O)CNC)ccc2Cl)nc(-c2c(C)noc2C)c1C [Example 242-3] | < 5 |
| CNC[C@@H](O)COc1ccc(Cl)c(-c2nc(-c3c(C)noc3C)c(Cl)c(N3Cc4nc(C)sc4C3)n2)c1 [Example 243-3] | < 5 |
| CNCC(O)COc1cccc(-c2nc(NC3CCN(C(=O)N(C)C)CC3)c(C)c(-c3c(C)noc3C)n2)c1 (centres unmarked) [Example 244-1a] | < 5 |
| CNC[C@@H](O)COc1ccc(F)c(-c2nc(-c3c(C)noc3C)c(C)c(N3Cc4cc(OC)cnc4C3)n2)c1 [Example 244-3] | < 5 |
| CNC[C@@H](O)COc1ccc(Cl)c(-c2nc(-c3c(C)noc3C)c(C)c(N3Cc4cnc(C)nc4C3)n2)c1 [Example 245-3] | < 5 |
| CNC[C@@H](O)COc1ccc(Cl)c(-c2nc(-c3c(C)noc3C)c(C)c(N3CC4(CCC4)C3)n2)c1 [Example 246-3] | < 5 |
| CNCC(O)COc1cccc(-c2nc(NC3CCCN(C(=O)C4CC4)C3)c(C)c(-c3c(C)noc3C)n2)c1 (centres unmarked) [Example 247-1a] | < 5 |
| CNCC(O)COc1cccc(-c2nc(NCC3CCN(C(=O)C4CC4)CC3)c(C)c(-c3c(C)noc3C)n2)c1 (centres unmarked) [Example 249-1a] | < 5 |
| CNC[C@@H](O)COc1ccc(Cl)c(-c2nc(-c3c(C)noc3C)cc(N3CC4(CCOCC4)C3)n2)c1 [Example 249-3] | < 5 |
| CNCC(O)COc1cccc(-c2nc(-c3c(C)noc3C)c(C)c(N3CCC4(CC3)CN(C(=O)OC)C4)n2)c1 (centres unmarked) [Example 251-1a] | < 5 |
| CNCC(O)COc1cccc(-c2nc(-c3c(C)noc3C)c(C)c(N3CCC4(CC3)CN(C(=O)N(C)C)C4)n2)c1 (centres unmarked) [Example 252-1a] | < 5 |
| CNC[C@@H](O)COc1ccc(Cl)c(-c2nc(-c3c(C)noc3C)c(C)c(N3Cc4nn(C)c(C)c4C3)n2)c1 [Example 252-3] | < 5 |
| CNCC(O)COc1cccc(-c2nc(N[C@H]3C[C@H](O)C3)c(C)c(-c3c(C)noc3C)n2)c1 (some centres unmarked) [Example 254-1a] | < 5 |
| CCO[C@@H]1CCC[C@@H]1N(CC)c1nc(-c2cc(OC[C@H](O)CNC)ccc2Cl)nc(-c2c(C)noc2C)c1C [Example 254-3] | 5 to 10 |
| CNCC(O)COc1cccc(-c2nc(N[C@H]3C[C@@](C)(O)C3)c(C)c(-c3c(C)noc3C)n2)c1 (some centres unmarked) [Example 255-1a] | < 5 |
| CCO[C@H]1CCC[C@H]1N(CC)c1nc(-c2cc(OC[C@H](O)CNC)ccc2Cl)nc(-c2c(C)noc2C)c1C [Example 255-3] | 5 to 10 |
| CNCC(O)COc1cccc(-c2nc(NC3CCOCC3)c(C)c(-c3c(CO)noc3C)n2)c1 (centres unmarked) [Example 256-3] | 5 to 10 |
| CNC[C@@H](O)COc1ccc(Cl)c(-c2nc(NC3CCN(C)CC3(F)F)c(C)c(-c3c(C)noc3C)n2)c1 (some centres unmarked) [Example 258-3] | < 5 |

| SMILES | IC50 [µM] |
| --- | --- |
| CNCC(O)COc1cccc(-c2nc(OCC3CCN(C(=O)OCc4ccccc4)CC3)c(C)c(-c3c(C)noc3C)n2)c1 (centres unmarked) [Example 259-1a] | < 5 |
| CNC[C@@H](O)COc1ccc(Cl)c(-c2nc(-c3c(C)noc3C)c(C)c(N3Cc4cnc(C5CC5)nc4C3)n2)c1 [Example 259-3] | < 5 |
| CNCC(O)COc1cccc(-c2nc(N[C@@H]3CCN(C4CC4)C[C@@H]3F)c(C)c(-c3c(C)noc3C)n2)c1 (some centres unmarked) [Example 260-1a] | < 5 |
| CNC[C@@H](O)COc1ccc(F)c(-c2nc(-c3c(C)noc3C)c(C)c(N3Cc4cncnc4C3)n2)c1 [Example 260-3] | < 5 |
| CNC[C@@H](O)COc1ccc(Cl)c(-c2nc(-c3c(C)noc3C)c(F)c(N3CC4(CCOCC4)C3)n2)c1 [Example 261-3] | < 5 |
| CNCC(O)COc1cccc(-c2nc(N[C@@H]3C[C@H]4CC[C@@H](C3)N4C(=O)OC)c(C)c(-c3c(C)noc3C)n2)c1 (some centres unmarked) [Example 265-1a] | < 5 |
| CNCC(O)COc1cccc(-c2nc(N[C@H]3C[C@H]4CC[C@@H](C3)N4C(=O)OC)c(C)c(-c3c(C)noc3C)n2)c1 (some centres unmarked) [Example 266-1a] | < 5 |
| CNCC(O)COc1cccc(-c2nc(N[C@H]3COC(=O)C3)c(C)c(-c3c(C)noc3C)n2)c1 (some centres unmarked) [Example 267-1a] | 10 to 20 |
| CNC[C@@H](O)COc1ccc(Cl)c(-c2nc(-c3c(C)noc3C)c(C)c(N3Cc4cccc(F)c4C3)n2)c1 [Example 267-3] | < 5 |
| CNCC(O)COc1cccc(-c2nc(N[C@@H]3COC(=O)C3)c(C)c(-c3c(C)noc3C)n2)c1 (some centres unmarked) [Example 268-1a] | 10 to 20 |
| CNC[C@@H](O)COc1ccc(F)c(-c2nc(-c3c(C)noc3C)c(C)c(N3CC4(CCCCO4)C3)n2)c1 [Example 269-3] | < 5 |
| CNCC(O)COc1ccc(Cl)c(-c2nc(NC3CCN(C(=O)OC)CC3)c(C)c(-c3c(C)noc3C)n2)c1 (centres unmarked) [Example 270-1a] | < 5 |
| CCS(=O)(=O)N1CC(Nc2nc(-c3cccc(OCC(O)CNC)c3)nc(-c3c(C)noc3C)c2C)C1 (centres unmarked) [Example 273-1a] | 10 to 20 |
| CNCC(O)COc1ccc(Cl)c(-c2nc(NC3CCOCC3)c(C)c(-c3c(CO)noc3C)n2)c1 (centres unmarked) [Example 273-3] | 5 to 10 |
| CNCC(O)COc1cccc(-c2nc(NC[C@H]3COCCN3CC(F)F)c(C)c(-c3c(C)noc3C)n2)c1 (some centres unmarked) [Example 274-1a] | < 5 |
| CNC[C@@H](O)COc1ccc(F)c(-c2nc(-c3c(C)noc3C)cc(N3Cc4nccnc4C3)n2)c1 [Example 274-3] | < 5 |
| CNCC(O)COc1cccc(-c2nc(NC3CN(C(=O)OC)C3)c(C)c(-c3c(C)noc3C)n2)c1 (centres unmarked) [Example 275-1a] | 10 to 20 |
| CNC[C@@H](O)COc1ccc(F)c(-c2nc(-c3c(C)noc3C)cc(N3Cc4cnn(C)c4C3)n2)c1 [Example 275-3] | < 5 |

Now from value to compound:

| IC50 [µM] | SMILES |
| --- | --- |
| < 5 | CNCC(O)COc1cccc(-c2nc(NC3CCN(C(=O)C4CC4)C3)c(C)c(-c3c(C)noc3C)n2)c1 (centres unmarked) [Example 243-1a] |
| < 5 | CNCC(O)COc1cccc(-c2nc(NC3CCN(C(=O)C4CC4)CC3)c(C)c(-c3c(C)noc3C)n2)c1 (centres unmarked) [Example 245-1a] |
| 5 to 10 | CNCC(O)COc1cccc(-c2nc(NC3CCCN(C4COC4)C3)c(C)c(-c3c(C)noc3C)n2)c1 (centres unmarked) [Example 246-1a] |
| < 5 | CNC[C@@H](O)COc1ccc(C(F)(F)F)c(-c2nc(-c3c(C)noc3C)c(C)c(N3Cc4cncnc4C3)n2)c1 [Example 247-3] |
| < 5 | CNCC(O)COc1cccc(-c2nc(NCC3CCN(C(=O)N(C)C)CC3)c(C)c(-c3c(C)noc3C)n2)c1 (centres unmarked) [Example 248-1a] |
| < 5 | CNC[C@@H](O)COc1ccc(Cl)c(-c2nc(-c3c(C)noc3C)c(C)c(N3Cc4cc(Br)cnc4C3)n2)c1 [Example 248-3] |
| < 5 | CNCC(O)COc1cccc(-c2nc(N[C@@H]3CCC[C@@H]3O)c(C)c(-c3c(C)noc3C)n2)c1 (some centres unmarked) [Example 250-1a] |
| < 5 | CNC[C@@H](O)COc1ccc(Cl)c(-c2nc(-c3c(C)noc3C)cc(N3Cc4cnn(C)c4C3)n2)c1 [Example 250-3] |
| < 5 | CNC[C@@H](O)COc1ccc(Cl)c(-c2nc(-c3c(C)noc3C)cc(N3Cc4nccnc4C3)n2)c1 [Example 251-3] |
| < 5 | CCS(=O)(=O)N1CC2(CCN(c3nc(-c4cccc(OCC(O)CNC)c4)nc(-c4c(C)noc4C)c3C)CC2)C1 (centres unmarked) [Example 253-1a] |
| < 5 | CCO[C@@H]1CCC[C@@H]1Nc1nc(-c2cc(OC[C@H](O)CNC)ccc2Cl)nc(-c2c(C)noc2C)c1C [Example 253-3] |
| < 5 | CNCC(O)COc1cccc(-c2nc(N[C@H]3C[C@@H](O)C3)c(C)c(-c3c(C)noc3C)n2)c1 (some centres unmarked) [Example 256-1a] |
| < 5 | CNC[C@@H](O)COc1ccc(Cl)c(-c2nc(N[C@@H]3CCO[C@@H](C)C3)c(C)c(-c3c(C)noc3C)n2)c1 [Example 257-3] |
| 5 to 10 | CNCC(O)COc1cccc(-c2nc(NC[C@H]3COCCN3C(=O)N(C)C)c(C)c(-c3c(C)noc3C)n2)c1 (some centres unmarked) [Example 258-1a] |
| < 5 | CNCC(O)COc1cccc(-c2nc(N[C@@H]3CCN(C4CC4)C[C@H]3F)c(C)c(-c3c(C)noc3C)n2)c1 (some centres unmarked) [Example 261-1a] |
| < 5 | CNCC(O)COc1cccc(-c2nc(NCC3CCN(C4COC4)CC3)c(C)c(-c3c(C)noc3C)n2)c1 (centres unmarked) [Example 262-1a] |
| < 5 | CNCC(O)COc1cccc(-c2nc(NC3CCN(C4COC4)CC3)c(C)c(-c3c(C)noc3C)n2)c1 (centres unmarked) [Example 263-1a] |
| < 5 | CNC[C@@H](O)COc1ccc(Cl)c(-c2nc(-c3c(C)noc3C)c(C)c(N3Cc4cnc(C(F)(F)F)nc4C3)n2)c1 [Example 263-3] |
| 5 to 10 | CNCC(O)COc1cccc(-c2nc(NC3CN(C(=O)C4CC4)C3)c(C)c(-c3c(C)noc3C)n2)c1 (centres unmarked) [Example 264-1a] |
| < 5 | CNC[C@@H](O)COc1ccc(Cl)c(-c2nc(-c3c(C)noc3C)c(C)c(N3Cc4cnc(C(C)C)nc4C3)n2)c1 [Example 264-3] |
| < 5 | CNC[C@@H](O)COc1ccc(Cl)c(-c2nc(-c3c(C)noc3C)c(C)c(N3Cc4cnn(CC(F)(F)F)c4C3)n2)c1 [Example 265-3] |
| < 5 | CNC[C@@H](O)COc1ccc(F)c(-c2nc(-c3c(C)noc3C)c(C)c(N3Cc4cccc(F)c4C3)n2)c1 [Example 266-3] |
| < 5 | CNC[C@@H](O)COc1ccc(Cl)c(-c2nc(-c3c(C)noc3C)c(C)c(C3CCOCC3)n2)c1 [Example 268-3] |
| < 5 | CNCC(O)COc1cccc(-c2nc(NC3CCOCC3C)c(C)c(-c3c(C)noc3C)n2)c1 (centres unmarked) [Example 269-1a] |
| < 5 | CNC[C@@H](O)COc1ccc(Cl)c(-c2nc(-c3c(C)noc3C)c(C)c(N3Cc4cnn(C5CC5)c4C3)n2)c1 [Example 270-3] |
| < 5 | CNCC(O)COc1cccc(-c2nc(N[C@@H]3CCOC[C@@H]3F)c(C)c(-c3c(C)noc3C)n2)c1 (some centres unmarked) [Example 271-1a] |
| < 5 | CNC[C@@H](O)COc1ccc(Cl)c(-c2nc(-c3c(C)noc3C)c(C)c(N3Cc4cn(C(C)C)nc4C3)n2)c1 [Example 272-3] |
| < 5 | CCc1onc(C)c1-c1nc(-c2cccc(OCC(O)CNC)c2)nc(NC2CCOCC2)c1C (centres unmarked) [Example 276-1a] |

Reference: patent US10633389B2, “CARM1 inhibitors and uses thereof” (Epizyme, Inc., priority 2013, dated 2020)
